Bounds are passed on as bounds.

The results in this text go back to patent US12162888B2, “Carboxamides as ubiquitin-specific protease inhibitors” (Valo Early Discovery, Inc., priority 2018, dated 2024).

For the first test, the target named is T1, USP28 (His-tagged USP28-FL-mammalian) (Homo sapiens, UniProt Q96RU2).
T1 construct: Expression of USP28 (1-1077)-TEV-6*His (pTT5 vector) was carried out in Expi293f cells; made in house; host or cells: Expi293F cells (pTT5 vector)
T1 sequence (Q96RU2 1-1077): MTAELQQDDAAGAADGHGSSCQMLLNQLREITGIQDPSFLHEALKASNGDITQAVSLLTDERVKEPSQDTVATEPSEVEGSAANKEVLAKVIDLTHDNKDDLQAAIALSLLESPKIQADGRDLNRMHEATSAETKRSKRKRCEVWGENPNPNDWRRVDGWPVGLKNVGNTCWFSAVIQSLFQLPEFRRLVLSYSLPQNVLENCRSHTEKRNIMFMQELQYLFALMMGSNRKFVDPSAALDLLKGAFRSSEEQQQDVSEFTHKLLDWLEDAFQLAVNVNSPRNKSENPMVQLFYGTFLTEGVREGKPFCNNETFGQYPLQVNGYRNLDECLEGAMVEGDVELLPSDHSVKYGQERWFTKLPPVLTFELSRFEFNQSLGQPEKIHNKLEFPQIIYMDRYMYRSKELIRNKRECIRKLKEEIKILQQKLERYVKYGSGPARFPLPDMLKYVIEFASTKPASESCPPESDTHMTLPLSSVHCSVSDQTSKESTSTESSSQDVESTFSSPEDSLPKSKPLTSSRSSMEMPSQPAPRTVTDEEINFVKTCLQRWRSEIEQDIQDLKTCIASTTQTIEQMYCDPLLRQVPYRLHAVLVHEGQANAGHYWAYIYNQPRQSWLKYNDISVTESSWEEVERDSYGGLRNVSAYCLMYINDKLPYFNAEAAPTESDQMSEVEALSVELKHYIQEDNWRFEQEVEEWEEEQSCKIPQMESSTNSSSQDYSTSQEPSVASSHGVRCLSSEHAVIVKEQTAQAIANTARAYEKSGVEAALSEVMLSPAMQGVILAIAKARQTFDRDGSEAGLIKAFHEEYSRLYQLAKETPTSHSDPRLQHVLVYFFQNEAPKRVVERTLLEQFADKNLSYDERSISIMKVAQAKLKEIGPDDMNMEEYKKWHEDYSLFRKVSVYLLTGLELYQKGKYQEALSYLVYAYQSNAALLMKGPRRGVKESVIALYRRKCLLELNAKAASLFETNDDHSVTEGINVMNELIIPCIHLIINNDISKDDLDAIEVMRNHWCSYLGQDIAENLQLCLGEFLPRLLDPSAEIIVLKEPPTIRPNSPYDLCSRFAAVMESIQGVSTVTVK
The test can be described thus: Ubiquitin-Rhodamine 110 Assay for USP28 Activity, Example A-1(a). The following applies: Ubiquitin-Rhodamine 110 biochemical assay, read-out: USP28 A-1(a) IC50 range. Format: biochemical. As to the method:
Example A-1(a): Biochemical Assay: Ubiquitin-Rhodamine 110 Assay for USP28 Activity
The assay was performed in a final volume of 9 μL in assay buffer containing 20 mM Tris-HCl (pH 8.0, (1M Tris-HCl, pH 8.0 solution; Corning 46-031-CM)), 3 mM BME (2-Mercaptoethanol; Sigma 63689-25ML-F), 0.03% BGG (0.22 μM filtered, Sigma, G7516-25G), and 0.01% Triton X-100 (Sigma, T9284-10L). Nanoliter quantities of 10-point, 3-fold serial dilution in DMSO was pre-dispensed into 1536 assay plates (Corning, #3724BC) for a final test concentration of 25 μM to 1.3 nM, top to lowest dose, respectively. Enzyme USP28, construct His-tagged USP28-FL-mammalian, (protein expression and purification procedure described below). Concentration and incubation times were optimized for the maximal signal-to-background while maintaining initial velocity conditions at a fixed substrate concentration. The final concentration of the enzyme in the assay was […]. Final substrate (Ub-Rh110; Ubiquitin-Rhodamine 110, UbiQ-126) concentration was 25 nM with [Ub-Rh110]<<Km. 3 μL of 2× enzyme was added to assay plates (pre-stamped with compound) preincubated with […] for 30 minutes and then 3 μL of 2× Ub-Rh110 was added to assay plates. Plates were incubated for 45 minutes at room temperature before addition of 3 μL of stop solution (final concentration of 10 mM citric acid (Sigma, 251275-500G)). Fluorescence was read on the Envision (Excitation at 485 nm and Emission at 535 nm; Perkin Elmer) or on the PheraSTAR (Excitation at 485 nm and Emission at 535 nm; BMG Labtech).
Procedure for the Protein expression and purification for construct His-tagged USP28-FL-mammalian
Expression of USP28 (1-1077)-TEV-6*His (pTT5 vector) was carried out in Expi293f cells (sequence derived from uniprot ID: Q96RU2-1). Cells were re-suspended in lysis buffer B 50 mM Bicine, pH 8.0, 20 mM NaCl, 5% glycerol, 0.1% CHAPS, 5 mM β-ME, 1 mM PMSF, 1 ug/ml Leupeptin, 1 ug/ml Pepstatin) and lysed by sonication. Insoluble material was removed by centrifugation and the supernatant was loaded onto a Ni-NTA column (GE Healthcare) equilibrated with Ni Buffer A (50 mM Bicine, pH 8.0, 20 mM NaCl, 5% glycerol, 0.1% CHAPS, 5 mM R-ME.) and washed with Ni Buffer A+20 mM imidazole until A280 reached baseline. The protein was eluted with Ni Buffer B (50 mM Bicine, pH 8.0, 20 mM NaCl, 5% glycerol, 0.1% CHAPS, 5 mM β-ME, 300 mM imidazole.). The protein was further purified using a Superdex™ 200 10/300 GL column (GE Healthcare) equilibrated with 50 mM Bicine, pH 8.0, 20 mM NaCl, 5% glycerol, 0.1% CHAPS, 5 mM β-ME. The protein was concentrated to 2.5 mg ml-1, flash-frozen in liquid N2 and stored at −80° C.
For assay formats Example A-1(a), A-1(b), and A-2, data were reported as percent inhibition compared with control wells based on the following equation: % inh=1−((FLU−AveLow)/(AveHigh−AveLow)) where FLU=measured Fluorescence, AveLow=average Fluorescence of no enzyme control (n=16), and AveHighh=average Fluorescence of DMSO control (n=16). IC50 values were determined by curve fitting of the standard 4 parameter logistic fitting algorithm included in the Activity Base software package: IDBS XE Designer Model 205. Data is fitted using the Levenburg Marquardt algorithm.
For the molecule `CN[C@@H]1CN(c2ccc3c(n2)CC[C@H](NC(=O)c2sc4nc(C)ccc4c2N)C3)C[C@@]12CCCCO2` [Example 503, 3-amino-6-methyl-N-[(6S)-2-[(4R,5S)-4-(methylamino)-6-oxa-2-azaspiro[4.5]decan-2-yl]-5,6,7,8-tetrahydroquinolin-6-yl]thieno[2,3-b]pyridine-2-carboxamide], the IC50 was 50 to 200 nM.

Take `CO[C@H](C)CO[C@H]1CN(c2ccc3c(n2)CC[C@H](NC(=O)c2sc4nc(C)ccc4c2N)C3)C[C@@H]1N` [Example 482, 3-amino-N-[(6S)-2-[(3S,4S)-3-amino-4-[(2R)-2-methoxypropoxy]pyrrolidin-1-yl]-5,6,7,8-tetrahydroquinolin-6-yl]-6-methylthieno[2,3-b]pyridine-2-carboxamide]: the IC50 is 50 to 200 nM.

`CCO[C@H]1CN(c2ccc3c(n2)CC[C@H](NC(=O)c2sc4nc(C)cnc4c2N)C3)C[C@@H]1N` [Example 520, 7-amino-N-[(6S)-2-[(3S,4S)-3-amino-4-ethoxypyrrolidin-1-yl]-5,6,7,8-tetrahydroquinolin-6-yl]-3-methylthieno[2,3-b]pyrazine-6-carboxamide]: the IC50 was in the range of 200 to 2000 nM.

With `COC[C@@H]1CN(c2ccc3c(n2)CC[C@H](NC(=O)c2sc4cnccc4c2N)C3)C[C@@H]1N` [Example 500, 3-amino-N-[(6S)-2-[(3R,4R)-3-amino-4-(methoxymethyl)pyrrolidin-1-yl]-5,6,7,8-tetrahydroquinolin-6-yl]thieno[2,3-c]pyridine-2-carboxamide], the IC50 is > 2000 nM.

For the molecule `COCC(F)(F)[C@H]1CN(c2ccc3c(n2)CC[C@H](NC(=O)c2sc4nc(C)ccc4c2N)C3)C[C@@H]1N` [Example 480, 3-amino-N-[(6S)-2-[(3R,4S)-3-amino-4-(1,1-difluoro-2-methoxyethyl)pyrrolidin-1-yl]-5,6,7,8-tetrahydroquinolin-6-yl]-6-methylthieno[2,3-b]pyridine-2-carboxamide], the IC50 lay within 50 to 200 nM.

On to `CN[C@@H]1CN(c2ccc3c(n2)CC[C@H](NC(=O)c2sc4nc(C)ccc4c2N)C3)C[C@@H]1COC` [Example 489, 3-amino-N-[(6S)-2-[(3S,4S)-3-(methoxymethyl)-4-(methylamino)pyrrolidin-1-yl]-5,6,7,8-tetrahydroquinolin-6-yl]-6-methylthieno[2,3-b]pyridine-2-carboxamide], for which the IC50 was 50 to 200 nM.

The test is the same for the next values; noted with them: biochemical IC50 range, Ubiquitin-Rhodamine 110 assay, read-out: USP28 A-1(a).
On to `CO[C@]12CCN[C@H]1CN(c1ccc3c(c1)OC[C@H](NC(=O)c1sc4nc(C)ccc4c1N)C3)C2` [Example 666, N-[(3R)-7-[(3aS,6aS)-3a-methoxyoctahydropyrrolo[2,3-c]pyrrol-5-yl}-3,4-dihydro-2H-1-benzopyran-3-yl]-3-amino-6-methylthicno[2,3-b]pyridine-2-carboxamide], for which the IC50 lay within 1 to 50 nM.

For `Cc1ccc2c(N)c(C(=O)N[C@H]3COc4nc(N5C[C@@H](CF)[C@H](N)C5)ccc4C3)sc2n1` [Example 542, 3-amino-N-[(3R)-7-[(3S,4R)-3-amino-4-(fluoromethyl)pyrrolidin-1-yl]-2H,3H,4H-pyrano[2,3-b]pyridin-3-yl]-6-methylthieno[2,3-b]pyridine-2-carboxamide], the IC50 lay in the range of 50 to 200 nM.

Regarding `Cc1ccc2c(N)c(C(=O)N[C@H]3COc4cc(OC[C@@H]5CNC[C@H]5C(F)(F)F)ccc4C3)sc2n1` [Example 687, 3-amino-6-methyl-N-[(3R)-7-{[(3S,4S)-4-(trifluoromethyl)pyrrolidin-3-yl]methoxy}-3,4-dihydro-2H-1-benzopyran-3-yl]thieno[2,3-b]pyridine-2-carboxamide], the IC50 lay in the range of 1 to 50 nM.

`Cc1ccc2c(N)c(C(=O)N[C@H]3COc4nc(N5C[C@@H](N)C6(C5)OCCO6)ccc4C3)sc2n1` [Example 544, 3-amino-N-[(3R)-7-[(9R)-9-amino-1,4-dioxa-7-azaspiro[4.4]nonan-7-yl]-2H,3H,4H-pyrano[2,3-b]pyridin-3-yl]-6-methylthieno[2,3-b]pyridine-2-carboxamide]: the IC50 was 200 to 2000 nM.
